The first assay concerns the target 5-aminolevulinate synthase (ALAS) (Mus musculus (Mouse), UniProt P08680). In words: ALAS activity. The assay is classed as biochemical.
Conditions: not given
As for the experimental part: ALAS activity was determined according the article, Stojanovski, B. M., Breydo, L., Hunter, G. A., Uversky, V. N, Ferreira G. C. (2014) Biochim. Biophys. Acta 1844, 2145-2154, which is hereby incorporated by reference in its entirety.
Sequence of 5-aminolevulinate synthase (ALAS) (P08680 50-587): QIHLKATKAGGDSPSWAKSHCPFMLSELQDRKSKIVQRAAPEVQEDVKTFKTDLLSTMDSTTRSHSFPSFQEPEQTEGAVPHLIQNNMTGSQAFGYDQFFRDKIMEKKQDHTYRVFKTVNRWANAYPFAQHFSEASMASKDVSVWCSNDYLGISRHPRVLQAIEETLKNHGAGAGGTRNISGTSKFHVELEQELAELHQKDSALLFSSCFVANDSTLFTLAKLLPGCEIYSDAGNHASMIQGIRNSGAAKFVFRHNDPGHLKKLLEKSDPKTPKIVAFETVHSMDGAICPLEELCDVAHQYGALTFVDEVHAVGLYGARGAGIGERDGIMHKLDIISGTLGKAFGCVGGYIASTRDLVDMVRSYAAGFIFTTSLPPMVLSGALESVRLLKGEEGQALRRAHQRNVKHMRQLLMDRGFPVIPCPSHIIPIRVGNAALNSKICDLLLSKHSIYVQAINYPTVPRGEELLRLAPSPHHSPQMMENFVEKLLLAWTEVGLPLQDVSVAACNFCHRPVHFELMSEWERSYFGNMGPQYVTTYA
`Cn1cc(C(=O)C2CCCCC2)c2cc(C(=O)NS(=O)(=O)c3ccc(CN(CCSc4ccccc4)Cc4ccc(S(N)(=O)=O)cc4)cc3)ccc21` [SZ10TA40]: the IC50 came to 8.6 ± 0.9 µM.
In turn, `CC1(C)CCN(c2ccc(C(=O)NS(=O)(=O)c3ccc(CN(CCSc4ccccc4)Cc4ccc(S(N)(=O)=O)cc4)cc3)cc2)CC1` [SZ10TA2] returned an IC50 of 43 ± 5.8 µM.
`COc1ccc(Cc2ccc(C(=O)NS(=O)(=O)c3ccc(-c4ccc(Oc5ccccc5)cc4)cc3)cc2)c(OC)c1OC` [SZ35TA24] came in with an IC50 of 31.4 ± 1.8 µM.
Take `Cn1cc(C(=O)C2CCCCC2)c2cc(C(=O)NS(=O)(=O)c3ccc(-c4ccc(C(C)(C)C)cc4)cc3)ccc21` [SZ11TA40]: half-maximal inhibition (IC50) was put at 19.3 ± 2.7 µM.
Still for that read-out and setting: for `O=C(NS(=O)(=O)c1ccc(CNc2cccc([N+](=O)[O-])c2)cc1)c1ccc(CN2C(=O)C(c3ccc(F)cc3F)=C(c3ccc(F)cc3F)C2=O)cc1` [SZ12TA42] the value was 8.6 ± 0.9 µM.
As to `COc1cccc(CN(CCSc2ccccc2)Cc2ccc(S(=O)(=O)NC(=O)c3cccc4ccccc34)cc2)c1` [SZ17TA7], 50 ± 6.1 µM corresponded to half-maximal inhibition (IC50).

For a further assay, the system named is ALAS.
Experiment: not given
The note with it: background, reference [3]; read-out: IC50 of known ALAS inhibitor; cited from earlier work.
With `NC(C(=O)O)C(=O)O` [aminomalonate], the IC50 is 7 µM.

The values above are taken from US11479532B2, “5-aminolevulinate synthase inhibitors and methods of use thereof” (UNIVERSITY OF SOUTH FLORIDA, priority 2017, dated 2022).
